# From ChEMBL document CHEMBL3091424, “Anti-tubercular agents. Part 8: synthesis, antibacterial and antitubercular activity of 5-nitrofuran based 1,2,3-triazoles” (Bioorg Med Chem Lett, 2013)
# Activity calls are given as the source filed them. The calls are words filed in the database; no cut-off is given here.
# Key:
# [1] = system: Pseudomonas aeruginosa; experiment: Antimicrobial activity against Pseudomonas aeruginosa MTCC 2453 after 24 hrs by well diffusion method; format: functional; details: MTCC 2453, 24 h
# [2] = system: Vero; experiment: Cytotoxicity against african green monkey Vero cells; format: cell-based; details: Chlorocebus sabaeus
# [3] = system: Staphylococcus aureus; experiment: Bactericidal activity against Staphylococcus aureus MTCC 96 after 24 hrs; format: functional; details: MTCC 96, 24 h
# [4] = system: Staphylococcus aureus; experiment: Antimicrobial activity against Staphylococcus aureus MTCC 96 after 24 hrs by well diffusion method; format: functional; details: MTCC 96, 24 h
# [5] = system: Staphylococcus aureus; experiment: Antibiofilm activity against Staphylococcus aureus MLS-16 MTCC 2940 after 24 hrs by crystal violet assay; format: functional, organism-based; details: MLS-16 MTCC 2940, 24 h
# [6] = system: Staphylococcus aureus; experiment: Antimicrobial activity against Staphylococcus aureus MLS-16 MTCC 2940 after 24 hrs by well diffusion method; format: functional; details: MLS-16 MTCC 2940, 24 h
# [7] = system: Escherichia coli; experiment: Bactericidal activity against Escherichia coli MTCC 739 after 24 hrs; format: functional; details: MTCC 739, 24 h
# [8] = system: Raoultella planticola; experiment: Antimicrobial activity against Klebsiella planticola MTCC 530 after 24 hrs by well diffusion method; format: functional; details: MTCC 530, 24 h
# [9] = system: Staphylococcus aureus; experiment: Bactericidal activity against Staphylococcus aureus MLS-16 MTCC 2940 after 24 hrs; format: functional; details: MLS-16 MTCC 2940, 24 h
# [10] = system: Bacillus subtilis; experiment: Antimicrobial activity against Bacillus subtilis MTCC 121 after 24 hrs by well diffusion method; format: functional; details: MTCC 121, 24 h
# [11] = system: Candida albicans; experiment: Antimicrobial activity against Candida albicans MTCC 3017 at 150 ug/ml after 24 hrs by well diffusion method; format: functional, organism-based
# [12] = system: Pseudomonas aeruginosa; experiment: Bactericidal activity against Pseudomonas aeruginosa MTCC 2453 after 24 hrs; format: functional; details: MTCC 2453, 24 h
# [13] = system: MRC5; experiment: Cytotoxicity against human MRC5 cells; format: cell-based
# [14] = system: Staphylococcus aureus; experiment: Antibiofilm activity against Staphylococcus aureus MTCC 96 after 24 hrs by crystal violet assay; format: functional, organism-based; details: MTCC 96, 24 h
# [15] = system: Bacillus subtilis; experiment: Bactericidal activity against Bacillus subtilis MTCC 121 after 24 hrs; format: functional; details: MTCC 121, 24 h
# [16] = system: Raoultella planticola; experiment: Antibiofilm activity against Klebsiella planticola MTCC 530 after 24 hrs by crystal violet assay; format: functional, organism-based; details: MTCC 530, 24 h
# [17] = system: Mycobacterium tuberculosis; experiment: Antimicrobial activity against Mycobacterium tuberculosis H37Rv after 3 weeks by broth dilution method; format: functional; details: for MIC: 504 h
# [18] = system: Escherichia coli; experiment: Antimicrobial activity against Escherichia coli MTCC 739 after 24 hrs by well diffusion method; format: functional; details: MTCC 739, 24 h
# [19] = system: Raoultella planticola; experiment: Bactericidal activity against Klebsiella planticola MTCC 530 after 24 hrs; format: functional; details: MTCC 530, 24 h
# [20] = system: Micrococcus luteus; experiment: Antimicrobial activity against Micrococcus luteus MTCC 2470 after 24 hrs by well diffusion method; format: functional; details: MTCC 2470, 24 h
# [21] = system: Micrococcus luteus; experiment: Bactericidal activity against Micrococcus luteus MTCC 2470 after 24 hrs; format: functional; details: MTCC 2470, 24 h
# [22] = system: Enterococcus faecalis; experiment: Antimicrobial activity against vancomycin -resistant Enterococcus faecalis after 24 hrs by microdilution method; format: functional
# [23] = system: Staphylococcus aureus; experiment: Antimicrobial activity against methicillin-resistant Staphylococcus aureus after 24 hrs by microdilution method; format: functional
# [24] = system: Candida albicans; experiment: microbe, parasite or virus in culture; details: MTCC 3017, 24 h
# Description: Antimicrobial activity against Candida albicans MTCC 3017 after 24 hrs by well diffusion method
smiles,measurement,setting,value
COc1ccc(Cn2cc(CNC(=O)c3ccc([N+](=O)[O-])o3)nn2)cc1,MIC,[1],> 150 µg/mL
same,IC50,[2],274 µM
same,MBC,[3],75 µg/mL
same,MIC,[4],37.5 µg/mL
same,IC50,[5],6.1 µg/mL
same,MIC,[6],9.37 µg/mL
same,MBC,[7],75 µg/mL
same,MIC,[8],37.5 µg/mL
same,MBC,[9],9.37 µg/mL
same,MIC,[10],2.34 µg/mL
same,Activity,[11],inactive
same,MBC,[12],> 150 µg/mL
same,IC50,[13],146 µM
same,IC50,[14],12.6 µg/mL
same,MBC,[15],4.68 µg/mL
same,IC50,[16],24 µg/mL
same,Activity,[17],inactive
same,MIC,[18],75 µg/mL
same,MBC,[19],37.5 µg/mL
same,MIC,[20],2.34 µg/mL
same,MBC,[21],2.34 µg/mL
O=C(O)c1cn(C2CC2)c2cc(N3CCNCC3)c(F)cc2c1=O [CIPROFLOXACIN],MIC,[1],0.58 µg/mL
same,IC50,[2],192 µM
same,MBC,[3],0.58 µg/mL
same,MIC,[4],0.58 µg/mL
same,MIC,[6],0.58 µg/mL
same,MBC,[7],0.58 µg/mL
same,MIC,[8],0.58 µg/mL
same,MBC,[9],1.17 µg/mL
same,MIC,[10],0.58 µg/mL
same,MBC,[12],0.58 µg/mL
same,IC50,[13],181 µM
same,MBC,[15],1.17 µg/mL
same,MIC,[18],0.58 µg/mL
same,MBC,[19],1.17 µg/mL
same,MIC,[20],0.58 µg/mL
same,MBC,[21],0.58 µg/mL
COc1ccc(Cn2cc(CNC(=O)c3ccc([N+](=O)[O-])o3)nn2)cc1[N+](=O)[O-],MIC,[1],> 150 µg/mL
same,IC50,[2],176 µM
same,MBC,[3],> 150 µg/mL
same,MIC,[4],> 150 µg/mL
same,IC50,[5],4.1 µg/mL
same,MIC,[6],4.68 µg/mL
same,MBC,[7],18.8 µg/mL
same,MIC,[8],9.37 µg/mL
same,MBC,[9],4.68 µg/mL
same,MIC,[10],2.34 µg/mL
same,Activity,[11],inactive
same,MBC,[12],> 150 µg/mL
same,IC50,[13],198 µM
same,IC50,[14],91.2 µg/mL
same,MBC,[15],2.34 µg/mL
same,IC50,[16],6.1 µg/mL
same,MIC,[17],16 µg/mL
same,MIC,[18],18.8 µg/mL
same,MBC,[19],18.8 µg/mL
same,MIC,[20],4.68 µg/mL
same,MIC,[22],> 64 µg/mL
same,MBC,[21],9.37 µg/mL
same,MIC,[23],8 µg/mL
CC[C@H]1OC(=O)[C@H](C)[C@@H](O[C@H]2C[C@@](C)(OC)[C@@H](O)[C@H](C)O2)[C@H](C)[C@@H](O[C@@H]2O[C@H](C)C[C@H](N(C)C)[C@H]2O)[C@](C)(O)C[C@@H](C)C(=O)[C@H](C)[C@@H](O)[C@]1(C)O [ERYTHROMYCIN],IC50,[5],0.21 µg/mL
same,IC50,[14],0.25 µg/mL
same,IC50,[16],0.19 µg/mL
Clc1ccc(COC(Cn2ccnc2)c2ccc(Cl)cc2Cl)c(Cl)c1 (stereo not given) [MICONAZOLE],MIC,[24],9.37 µg/mL
COc1cc(Cn2cc(CNC(=O)c3ccc([N+](=O)[O-])o3)nn2)ccc1O,MIC,[1],> 150 µg/mL
same,IC50,[2],224 µM
same,MBC,[3],18.8 µg/mL
same,MIC,[4],18.8 µg/mL
same,IC50,[5],1.7 µg/mL
same,MIC,[6],2.34 µg/mL
same,MBC,[7],75 µg/mL
same,MIC,[8],75 µg/mL
same,MBC,[9],4.68 µg/mL
same,MIC,[10],4.68 µg/mL
same,Activity,[11],inactive
same,MBC,[12],> 150 µg/mL
same,IC50,[13],182 µM
same,IC50,[14],10.8 µg/mL
same,MBC,[15],9.37 µg/mL
same,IC50,[16],42.5 µg/mL
same,MIC,[17],8 µg/mL
same,MIC,[18],37.5 µg/mL
same,MBC,[19],75 µg/mL
same,MIC,[20],1.17 µg/mL
same,MIC,[22],> 64 µg/mL
same,MBC,[21],2.34 µg/mL
same,MIC,[23],16 µg/mL
O=C(NCc1cn(Cc2cccc([N+](=O)[O-])c2)nn1)c1ccc([N+](=O)[O-])o1,MIC,[1],> 150 µg/mL
same,IC50,[2],326 µM
same,MBC,[3],> 150 µg/mL
same,MIC,[4],> 150 µg/mL
same,IC50,[5],0.8 µg/mL
same,MIC,[6],1.17 µg/mL
same,MBC,[7],18.8 µg/mL
same,MIC,[8],18.8 µg/mL
same,MBC,[9],2.34 µg/mL
same,MIC,[10],2.34 µg/mL
same,Activity,[11],inactive
same,MBC,[12],> 150 µg/mL
same,IC50,[13],199 µM
same,IC50,[14],84.5 µg/mL
same,MBC,[15],4.68 µg/mL
same,IC50,[16],14.5 µg/mL
same,MIC,[17],8 µg/mL
same,MIC,[18],9.37 µg/mL
same,MBC,[19],37.5 µg/mL
same,MIC,[20],4.68 µg/mL
same,MIC,[22],> 64 µg/mL
same,MBC,[21],9.37 µg/mL
same,MIC,[23],8 µg/mL
